One block for each compound: values may come before it. Where a SMILES comes first, the peptide text is derived from it. Bridges are numbered along the chain shown (N, C = ends).
Assays:
[1] = biological target: T1, BRD2-BD1 (Homo sapiens, UniProt P25440); experiment: SPR binding of peptides to immobilised biotinylated BET bromodomain
T1 construct: human BRD2 (BD1: 65-194; BD2: 347-455); Avi tag (biotinylated); made in house; host or cells: E. coli BL21(DE3)
Protocol: (§1) We next assessed the ability of each of the three lead peptides to bind BRD3-BD1. […] To assess selectivity for other BET BDs, we used SPR to determine the binding affinity of each peptide toward the remaining BDs from BRD2, BRD3, and BRD4 (Fig. 1B). […]
(§2) Peptides were synthesised as C-terminal amides using standard fluorenylmethyloxycarbonyl (Fmoc)-strategy solid-phase chemistry using a Syro I automated synthesiser (Biotage) and NovaPEG Rink Amide resin (Novabiochem). Couplings were performed with HBTU/HOBt (1:1) and 6 equivalents of each amino acid. Double couplings were performed for arginine residues.
(§3) Following the final amino acid coupling reaction, the Fmoc group was removed and resin incubated with N-(chloroacetoxy)succinimide (0.2 M in DMF, 1 h, RT). Resin was washed with DMF (5 times) and DCM (5 times) and dried in vacuo.
(§4) Linear peptides were cleaved from the resin by incubation (3 h, RT) with a trifluoroacetic acid (TFA) cleavage cocktail (TFA/2,2’-(ethylenedioxy)diethanethiol/triisopropyl silane/H2O (92.5:2.5:2.5:2.5)) before filtration, concentration in vacuo and precipitation with ice-cold diethyl ether. Crude peptides were washed with diethyl ether (5 times), dried and resuspended in DMSO. The pH was raised to >8 using triethylamine to allow cyclisation. Following incubation (1 h, RT), peptides were re-acidified with TFA for purification.
(§5) Crude peptides were purified by reverse-phase high-performance liquid chromatography using a Chromolith Prep column (Merck) on a Prominence LC-20AP system (Shimadzu) (Solvent A: 0.1% TFA in H2O, Solvent B: 0.1% TFA in acetonitrile) to >95% purity as determined by mass spectrometry (Fig. S17). Purified peptides were reconstituted in DMSO and concentrations determined from their absorbance at 280 nm in 5% DMSO using predicted extinction coefficients.
(§6) Surface plasmon resonance (SPR)
(§7) Measurements were conducted on a T200 or S200 (GE Healthcare) and data analysed using the Biacore Insight Evaluation Software. Experiments were performed at 4 °C in single cycle kinetics mode. Biotinylated BET bromodomains were immobilised on a CAP chip (GE Healthcare) with a […]
(§8) pH 7.5 was used as the running buffer. […]

[2] = biological target: T2, BRD3-BD2 (Homo sapiens, UniProt Q15059); experiment: as above
T2 construct: Avi tag (biotinylated); made in house; host or cells: E. coli BL21(DE3)
T2 sequence (Q15059 307-419): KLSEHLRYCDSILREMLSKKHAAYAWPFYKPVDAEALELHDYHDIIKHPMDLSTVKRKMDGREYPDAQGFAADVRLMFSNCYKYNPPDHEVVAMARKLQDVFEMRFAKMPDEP
Protocol: as §1, §2, §3, §4, §5, §6, §7, §8

[3] = biological target: T3, BRD4-BD1 (Homo sapiens, UniProt O60885); experiment: as above
T3 construct: BRD4 (BD1: 42-168; BD2: 348-464); Avi tag (biotinylated); made in house; host or cells: E. coli Rosetta2(DE3)
Protocol: as §1, §2, §3, §4, §5, §6, §7, §8

[4] = biological target: T4, BRD4-BD2 (Homo sapiens, UniProt O60885); experiment: as above
T4 construct: BRD4 (BD1: 42-168; BD2: 348-464); Avi tag (biotinylated); made in house; host or cells: E. coli BL21(DE3)
Protocol: as §1, §2, §3, §4, §5, §6, §7, §8

[5] = biological target: T5, BRD2-BD2 (Homo sapiens, UniProt P25440); experiment: as above
T5 construct: human BRD2 (BD1: 65-194; BD2: 347-455); Avi tag (biotinylated); made in house; host or cells: E. coli BL21(DE3)
T5 sequence (P25440 347-455): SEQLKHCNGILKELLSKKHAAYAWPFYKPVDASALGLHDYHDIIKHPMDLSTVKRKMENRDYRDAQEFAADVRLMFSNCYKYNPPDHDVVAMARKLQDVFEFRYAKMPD
From the text: as §1, §5, §6, §7, §8

[6] = biological target: T6, BRD3-BD1 (Homo sapiens, UniProt Q15059); experiment: as above; conditions: for Kd: gray boxed value: no reproducible signals observed at the concentrations used
T6 construct: BRD3 (BD1: 25-147); Avi tag (biotinylated); made in house; host or cells: E. coli BL21(DE3)
T6 sequence (Q15059 25-147): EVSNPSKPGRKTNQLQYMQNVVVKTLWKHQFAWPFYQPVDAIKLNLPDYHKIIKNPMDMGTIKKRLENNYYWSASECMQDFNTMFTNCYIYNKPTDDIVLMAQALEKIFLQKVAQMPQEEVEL
From the text: as §1, §5, §6, §7, §8

[7] = tested on: BD1 domains (BRD2-BD1, BRD3-BD1, BRD4-BD1); experiment: SPR binding, stated for the BD1 domains together; set-up: species or system human; conditions: for reduction of affinity relative to 3.1B: all three BD1 domains
Protocol: as §1, §2, §3, §4, §5, §6, §7, §8

[8] = tested on: BD2 domains (BRD2-BD2, BRD3-BD2, BRD4-BD2); experiment: SPR binding, stated for the BD2 domains together; set-up: species or system human
Protocol: Measurements were conducted on a T200 or S200 (GE Healthcare) and data analysed using the Biacore Insight Evaluation Software. Experiments were performed at 4 C in single cycle kinetics mode. Biotinylated BET bromodomains were immobilised on a CAP chip (GE Healthcare) with a
pH 7.5 was used as the running buffer. Between cycles the chip was regenerated following the

[9] = gray boxed value: no reproducible signals observed at the concentrations used
[10] = 4 C, geometric mean and SD of two to five measurements

T1 sequence (P25440 65-194): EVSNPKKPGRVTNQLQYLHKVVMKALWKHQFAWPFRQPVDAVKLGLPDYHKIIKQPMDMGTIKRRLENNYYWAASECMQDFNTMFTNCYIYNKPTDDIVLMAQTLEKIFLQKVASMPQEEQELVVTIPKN

SMILES: CC[C@H](C)[C@@H]1NC(=O)[C@H](Cc2c[nH]c3ccccc23)NC(=O)[C@H]([C@@H](C)CC)NC(=O)[C@H](CCCNC(=N)N)NC(=O)[C@H]([C@@H](C)O)NC(=O)[C@H](CC(C)C)NC(=O)[C@H](CCCCNC(C)=O)NC(=O)[C@H]([C@@H](C)O)NC(=O)[C@H](Cc2c[nH]c3ccccc23)NC(=O)[C@H](CCCNC(=N)N)NC(=O)[C@H](CC(C)C)NC(=O)[C@H](Cc2ccc(O)cc2)NC(=O)[C@H]([C@@H](C)O)NC(=O)[C@H](Cc2c[nH]c3ccccc23)NC(=O)CSC[C@@H](C(N)=O)NC(=O)[C@H](CO)NC1=O [3.1A] ({CH2CO}-WTYLRWTK(Ac)LTRIWISC-NH2; thioether N-16)
- interaction with BRD2-BD1 (in words) [1]: no observable interaction

SMILES: CC[C@H](C)[C@@H]1NC(=O)[C@H](C)NC(=O)[C@H](CCCCN)NC(=O)[C@H](CCCCNC(C)=O)NC(=O)[C@H](Cc2c[nH]c3ccccc23)NC(=O)CSC[C@@H](C(N)=O)NC(=O)[C@H]([C@@H](C)CC)NC(=O)[C@H](Cc2c[nH]cn2)NC(=O)[C@H](CC(C)C)NC(=O)[C@H]([C@@H](C)O)NC(=O)[C@H](CCCCN)NC(=O)[C@H](CC(C)C)NC(=O)[C@H]([C@@H](C)CC)NC(=O)[C@H](CCCCNC(C)=O)NC(=O)CNC(=O)[C@@H]2CCCN2C(=O)[C@H](CC(C)C)NC1=O [3.2A] ({CH2CO}-WK(Ac)KAILPGK(Ac)ILKTLHIC-NH2; thioether N-17)
- Kd [1, 9]: > 10000 nM
- binding to BRD3-BD2 (in words) [2]: strong binding was not observed
- Kd [2, 9]: > 10000 nM
- Kd [3, 10]: 8.9 ± 20 nM
- Kd [4, 9]: > 10000 nM
- Kd [5, 9]: > 10000 nM
- Kd [6]: > 10000 nM

SMILES: CC[C@H](C)[C@@H]1NC(=O)[C@H](CCCCN)NC(=O)[C@H](CC(C)C)NC(=O)CNC(=O)[C@H](Cc2ccc(O)cc2)NC(=O)[C@H](CCCCNC(C)=O)NC(=O)[C@H](CCCCN)NC(=O)[C@H](Cc2c[nH]c3ccccc23)NC(=O)[C@H](CCC(N)=O)NC(=O)[C@H](CCCCNC(C)=O)NC(=O)[C@H](Cc2c[nH]c3ccccc23)NC(=O)CSC[C@@H](C(N)=O)NC1=O [3.2C] ({CH2CO}-WK(Ac)QWKK(Ac)YGLKIC-NH2; thioether N-12)
- binding to BD1 domains (in words) [7]: did not bind strongly
- selectivity between BD2 and BD1 domains [8]: 10- to 100 fold
- Kd ([8]; read-out: affinities for the BD2 domains): 10 to 100 nM

SMILES: CC(=O)NCCCC[C@@H]1NC(=O)[C@H](Cc2c[nH]c3ccccc23)NC(=O)CSC[C@@H](C(=O)N[C@@H](Cc2c[nH]c3ccccc23)C(=O)N[C@@H](CC(C)C)C(=O)N[C@@H](CCCCNC(C)=O)C(=O)N[C@@H](CCCNC(=N)N)C(=O)N[C@@H](CCCCNC(C)=O)C(=O)N[C@@H](CC(C)C)C(=O)N[C@@H](CC(C)C)C(=O)N[C@@H](CC(C)C)C(=O)N[C@@H](CCCNC(=N)N)C(=O)N[C@@H](CS)C(N)=O)NC(=O)[C@H](Cc2c[nH]c3ccccc23)NC(=O)[C@H](CC(N)=O)NC1=O [4.2A] ({CH2CO}-WK(Ac)NWCWLK(Ac)RK(Ac)LLLRC-NH2; thioether N-5 (inferred))
- binding to BRD4-BD2, fold tighter than to other BD2 domains [4]: 4- to 8 fold
- binding to BRD3-BD1, fold tighter than to BRD4-BD2 [6]: 10 fold

SMILES: CC[C@H](C)[C@@H]1NC(=O)[C@H](CO)NC(=O)[C@@H]2CCCN2C(=O)[C@H](CCCCNC(C)=O)NC(=O)[C@H](CCCNC(=N)N)NC(=O)[C@H](Cc2c[nH]c3ccccc23)NC(=O)[C@H](CCCCNC(C)=O)NC(=O)[C@H](CC(C)C)NC(=O)[C@H](CCCNC(=N)N)NC(=O)[C@H]([C@@H](C)CC)NC(=O)[C@H]([C@@H](C)O)NC(=O)[C@H](Cc2c[nH]cn2)NC(=O)[C@H](Cc2ccc(O)cc2)NC(=O)[C@H](C)NC(=O)[C@H](Cc2c[nH]c3ccccc23)NC(=O)CSC[C@@H](C(N)=O)NC(=O)[C@H](CO)NC1=O [4.2B] ({CH2CO}-WAYHTIRLK(Ac)WRK(Ac)PSISC-NH2; thioether N-17)
- Kd [1, 10]: 22 ± 0.028 nM
- Kd [2, 10]: 16 ± 11 nM
- Kd [3, 9]: > 10000 nM
- Kd [4, 10]: 1.1 ± 0.04 nM
- Kd [5, 10]: 2.7 ± 6 nM
- Kd [6]: > 10000 nM
- selectivity for BD2 domains over BD1 domains (in words) [8]: significant selectivity

- reduction of affinity relative to 3.1B [7]: ~80 fold
SMILES: CC[C@H](C)[C@@H]1NC(=O)[C@H]([C@@H](C)O)NC(=O)[C@H](CCCCN)NC(=O)[C@H](Cc2c[nH]c3ccccc23)NC(=O)CSC[C@@H](C(N)=O)NC(=O)[C@H](CCC(N)=O)NC(=O)[C@H](CCCCNC(C)=O)NC(=O)[C@H]([C@@H](C)O)NC(=O)[C@H](CCCNC(=N)N)NC(=O)[C@H](Cc2c[nH]c3ccccc23)NC(=O)[C@H]([C@@H](C)O)NC(=O)[C@H](CCCCNC(C)=O)NC(=O)CNC(=O)[C@H](C)NC1=O [AcK5→Ala] ({CH2CO}-WKTIAGK(Ac)TWRTK(Ac)QC-NH2; thioether N-14)

- reduction of affinity relative to 3.1B [7]: fourfold
SMILES: CC[C@H](C)[C@@H]1NC(=O)[C@H]([C@@H](C)O)NC(=O)[C@H](CCCCN)NC(=O)[C@H](Cc2c[nH]c3ccccc23)NC(=O)CSC[C@@H](C(N)=O)NC(=O)[C@H](CCC(N)=O)NC(=O)[C@H](CCCCNC(C)=O)NC(=O)[C@H]([C@@H](C)O)NC(=O)[C@H](CCCNC(=N)N)NC(=O)[C@H](Cc2c[nH]c3ccccc23)NC(=O)[C@H]([C@@H](C)O)NC(=O)[C@H](C)NC(=O)CNC(=O)[C@H](CCCCNC(C)=O)NC1=O [AcK7→Ala] ({CH2CO}-WKTIK(Ac)GATWRTK(Ac)QC-NH2; thioether N-14)

— publication PMC7604503, “Cyclic peptides can engage a single binding pocket through highly divergent modes” (Proceedings of the National Academy of Sciences of the …, 2020)
